# Experimental data taken from patent US8211945B2, “Carba-sugar amine derivative and glycolipid metabolic disorder treating agent containing the same as active ingredient” (Seikagaku Corporation, priority 2001, dated 2012).
# Numbering of substitutions follows the chain as printed.
# How the values were obtained:
# Assay in all cases: Mutant β-galactosidase activity in model cells, 4 days culture
# Format in all cases: cell-based
# [1] = target: T1, human mutant β-galactosidase R457Q (Homo sapiens, UniProt P16278, R457Q)
# T1 construct: expressed in transfected cells; host or cells: SV40-immortalized skin fibroblasts of a β-galactosidase-deficient knockout mouse
# T1 sequence (P16278 29-677 R457Q): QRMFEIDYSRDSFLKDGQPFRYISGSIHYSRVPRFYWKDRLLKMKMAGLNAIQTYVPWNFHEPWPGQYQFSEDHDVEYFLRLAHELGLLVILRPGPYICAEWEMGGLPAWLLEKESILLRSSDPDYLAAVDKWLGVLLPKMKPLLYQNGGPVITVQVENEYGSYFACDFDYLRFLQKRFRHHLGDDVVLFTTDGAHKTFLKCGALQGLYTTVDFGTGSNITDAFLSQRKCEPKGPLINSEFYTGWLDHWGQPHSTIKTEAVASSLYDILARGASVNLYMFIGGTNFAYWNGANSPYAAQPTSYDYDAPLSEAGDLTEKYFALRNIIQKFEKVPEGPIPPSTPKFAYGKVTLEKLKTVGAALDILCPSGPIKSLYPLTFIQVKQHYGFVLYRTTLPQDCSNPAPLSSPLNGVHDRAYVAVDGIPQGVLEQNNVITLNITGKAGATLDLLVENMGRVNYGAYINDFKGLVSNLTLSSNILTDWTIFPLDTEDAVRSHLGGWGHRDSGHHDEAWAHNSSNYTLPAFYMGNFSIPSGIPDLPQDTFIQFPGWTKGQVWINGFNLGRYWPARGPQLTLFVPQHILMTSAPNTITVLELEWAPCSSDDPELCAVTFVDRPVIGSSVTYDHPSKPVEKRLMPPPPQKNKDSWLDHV
# Excerpt: (§1) Cultured skin fibroblasts of a β-galactosidase-deficient knockout mouse was immortalized by introducing an SV40 viral gene, and enzyme genes integrated into pSV2neo and an expression vector were also introduced simultaneously, thereby establishing a model cell (Brain Dev., 23(5), 284-287, 2001). The genes used are human normal (GP8) and mutant β-galactosidase gene Y316C, G123R (infantile GM1-gangliosidosis), R201C (juvenile GM1-gangliosidosis), 151T, T82M, R201H, R263S, R457Q (adult GM1-gangliosidosis), W273L, Y83H, R482H and R482C (Morquio-B disease) (Hum. Genet., 93(2), 109-114, 1994).
# (§2) As a control substance, 0.5 mM N-(n-butyl)-deoxygalactonojirimycin (NB-DGJ: The Journal of Biological Chemistry, 269, 27108-27114 (1994)) was used, and the substance 18 of the present invention was used in an amount of 0.2 μM.
# (§3) Specifically, after culturing the model cell for 4 days using a cell culture medium (10% FCS DMEM) containing the substance 18 of the present invention, the resulting cells were recovered and diluted such that the amount of protein in the suspension became a predetermined level, and then enzyme activity in the diluted suspension was measured. Using 4-methylumbelliferyl-β-D-galactopyranoside as the fluorescent substrate, the enzyme activity during 30 minutes was measured at 37° C.
# [2] = target: T2, human mutant β-galactosidase R482H (Homo sapiens, UniProt P16278, R482H)
# T2 construct: expressed in transfected cells; host or cells: SV40-immortalized skin fibroblasts of a β-galactosidase-deficient knockout mouse
# T2 sequence (P16278 29-677 R482H): T1 sequence (P16278 29-677 R457Q) with Q429R, R454H
# Excerpt: as §1, §2, §3
# [3] = target: T3, human mutant β-galactosidase Y316C (Homo sapiens, UniProt P16278, Y316C)
# T3 construct: expressed in transfected cells; host or cells: SV40-immortalized skin fibroblasts of a β-galactosidase-deficient knockout mouse
# T3 sequence (P16278 29-677 Y316C): T1 sequence (P16278 29-677 R457Q) with Y288C, Q429R
# Excerpt: as §1, §2, §3
"enzyme activity, Control ([1]; transferred gene R457Q, control substance 0.5 mM NB-DGJ)","enzyme activity, Control ([2]; transferred gene R482H, control substance 0.5 mM NB-DGJ)","enzyme activity, Control ([3]; transferred gene Y316C, control substance 0.5 mM NB-DGJ)",SMILES,"enzyme activity increased in comparison with the control ([1]; R457Q, 0.2 μM)","Relative ratio (×100%) ([1]; R457Q, substance 18 vs control)","enzyme activity ([1]; transferred gene R457Q, 0.2 μM, 4 days)","Relative ratio (×100%) ([2]; R482H, substance 18 vs control)","enzyme activity ([2]; transferred gene R482H, 0.2 μM, 4 days)","Relative ratio (×100%) ([3]; Y316C, substance 18 vs control)","enzyme activity ([3]; transferred gene Y316C, 0.2 μM, 4 days)"
5.84,0.50,0.23,"CCCCN1C[C@H](O)[C@@H](O)[C@@H](O)[C@H]1CO [Control, N-(n-butyl)-deoxygalactonojirimycin, reference compound]",–,–,–,–,–,–,–
–,–,–,"CCCCCCCCN[C@@H]1C=C(CO)[C@H](O)C(O)[C@@H]1O (stereo partly drawn) [Substance 18, N-octyl-5a-carba-α-L-arabino-hexo-5(5a)-enopyranosylamine]",≥ 150%,2.42 ×100%,14.17,2.50 ×100%,1.24,3.44 ×100%,0.80
